Experimental findings from patent US20210309595A1, “COMPOSITION FOR FORMING OPTICAL COMPONENT, OPTICAL COMPONENT, COMPOUND, AND RESIN” (Mitsubishi Gas Chemical Company, Inc., priority 2018, published 2021) are described below.

Each structure is given as a SMILES string.

One data set in a line: Film heat resistance (visual defects after baking). The data set is classed as physicochemical. The arrangement: key: A: No visual defects in the film; C: Visual defects in the film (including the loss of films). The settings on record: film baked at 110° C. for 5 minutes. On the procedure: (§1) The compositions for forming optical components were each prepared so that the amount of the compound shown in the following table was 5% by mass in propylene glycol methyl ether. Next, a silicon substrate was spin coated with each of these compositions for forming an optical component, and then baked at 110° C. for 60 seconds to prepare an optical component forming film each having a film thickness of 1000 nm.
The optical component forming film was baked at 110° C. for 5 minutes to evaluate the film heat resistance.
Consider `c1ccc2cc(C3c4c(ccc5ccc(OCCOCC6CO6)cc45)Oc4ccc5ccc(OCCOCC6CO6)cc5c43)ccc2c1` (stereo not shown) [BiN-1-GE], for which the “Evaluation of film heat resistance” value is “A”.
For the molecule `c1ccc2cc(C3c4c(ccc5ccc(OCC6CO6)cc45)Oc4ccc5ccc(OCC6CO6)cc5c43)ccc2c1` (stereo not shown) [BiN-1-G], the “Evaluation of film heat resistance” value is reported as “A”.
In the case of `Oc1ccc(CCOc2ccc3ccc4c(c3c2)C(c2ccc3ccccc3c2)c2c(ccc3ccc(OCCc5ccc(O)cc5)cc23)O4)cc1` [BiN-1-PE], the “Evaluation of film heat resistance” value was “A”.
`Oc1ccc2ccc3c(c2c1)C(c1ccc2ccccc2c1)c1c(ccc2ccc(O)cc12)O3` [BiN-1]: the “Evaluation of film heat resistance” value is “A”.
For `C#CCOc1ccc2ccc3c(c2c1)C(c1ccc2ccccc2c1)c1c(ccc2ccc(OCC#C)cc12)O3` [BiN-1-Pr], the “Evaluation of film heat resistance” value is listed as “A”.
`C=Cc1ccc(COCCOc2ccc3ccc4c(c3c2)C(c2ccc3ccccc3c2)c2c(ccc3ccc(OCCOCc5ccc(C=C)cc5)cc23)O4)cc1` [BiN-1-SE]: the “Evaluation of film heat resistance” value is given as “A”.
For `Oc1ccc2c3c(ccc2c1)Oc1ccc2cc(O)ccc2c1C3c1ccc2ccccc2c1` [BiN-3], the “Evaluation of film heat resistance” value is recorded as “A”.
The same measure, in the same setting: to `CC1(c2ccc3ccccc3c2)c2c(ccc3ccc(O)cc23)Oc2ccc3ccc(O)cc3c21` [BiN-4] belongs “A”; to `CC(C)(C)OC(=O)COc1ccc2c3c(ccc2c1)Oc1ccc2cc(OCC(=O)OC(C)(C)C)ccc2c1C3c1ccc2ccccc2c1` [BiN-3-MeBOC], “A”.
With `C=CCOc1ccc2c3c(ccc2c1)Oc1ccc2cc(OCC=C)ccc2c1C3c1ccc2ccccc2c1` [BiN-3-AL], the “Evaluation of film heat resistance” value is “A”.

A short description of a further data set: Refractive index of optical component forming film (spectroscopic ellipsometer). The format is physicochemical. Conditions: wavelength 633 nm; 1000 nm film from 5% by mass composition, baked 110° C. 60 seconds. On the procedure: as §1
(§2) Then, tests for the refractive index and the transparency at a wavelength of 633 nm were carried out by using a vacuum ultraviolet with variable angle spectroscopic ellipsometer (model name: VUV-VASE) manufactured by J.A. Woollam Japan, and the refractive index and the transparency were evaluated.
For `c1ccc2cc(C3c4c(ccc5ccc(OCCOCC6CO6)cc45)Oc4ccc5ccc(OCCOCC6CO6)cc5c43)ccc2c1` (stereo not shown) [BiN-1-GE], the “Evaluation of refractive index” value is listed as “A (The refractive index is 1.75 or more.)”.
`c1ccc2cc(C3c4c(ccc5ccc(OCC6CO6)cc45)Oc4ccc5ccc(OCC6CO6)cc5c43)ccc2c1` (stereo not shown) [BiN-1-G]: the “Evaluation of refractive index” value is “A (The refractive index is 1.75 or more.)”.
As for `Oc1ccc(CCOc2ccc3ccc4c(c3c2)C(c2ccc3ccccc3c2)c2c(ccc3ccc(OCCc5ccc(O)cc5)cc23)O4)cc1` [BiN-1-PE], the “Evaluation of refractive index” value was “A (The refractive index is 1.75 or more.)”.
With `Oc1ccc2ccc3c(c2c1)C(c1ccc2ccccc2c1)c1c(ccc2ccc(O)cc12)O3` [BiN-1], the “Evaluation of refractive index” value is given as “A (The refractive index is 1.75 or more.)”.
Regarding `C#CCOc1ccc2ccc3c(c2c1)C(c1ccc2ccccc2c1)c1c(ccc2ccc(OCC#C)cc12)O3` [BiN-1-Pr], the “Evaluation of refractive index” value is reported as “A (The refractive index is 1.75 or more.)”.
On the same count and under the same terms, to `C=Cc1ccc(COCCOc2ccc3ccc4c(c3c2)C(c2ccc3ccccc3c2)c2c(ccc3ccc(OCCOCc5ccc(C=C)cc5)cc23)O4)cc1` [BiN-1-SE] belongs “A (The refractive index is 1.75 or more.)”.
`Oc1ccc2c3c(ccc2c1)Oc1ccc2cc(O)ccc2c1C3c1ccc2ccccc2c1` [BiN-3]: the “Evaluation of refractive index” value was “A (The refractive index is 1.75 or more.)”.
Consider `CC1(c2ccc3ccccc3c2)c2c(ccc3ccc(O)cc23)Oc2ccc3ccc(O)cc3c21` [BiN-4], for which the “Evaluation of refractive index” value was “A (The refractive index is 1.75 or more.)”.
For the molecule `CC(C)(C)OC(=O)COc1ccc2c3c(ccc2c1)Oc1ccc2cc(OCC(=O)OC(C)(C)C)ccc2c1C3c1ccc2ccccc2c1` [BiN-3-MeBOC], the “Evaluation of refractive index” value is “B (The refractive index is 1.65 or more and less than 1.75.)”.
Consider `C=CCOc1ccc2c3c(ccc2c1)Oc1ccc2cc(OCC=C)ccc2c1C3c1ccc2ccccc2c1` [BiN-3-AL], for which the “Evaluation of refractive index” value was “A (The refractive index is 1.75 or more.)”.

A short description of the next data set: Transparency (absorption coefficient) of optical component forming film. The format is physicochemical. Conditions: absorption coefficient at wavelength 633 nm; 1000 nm film, baked 110° C. 60 seconds. On the procedure:
as §1, §2
On to `c1ccc2cc(C3c4c(ccc5ccc(OCCOCC6CO6)cc45)Oc4ccc5ccc(OCCOCC6CO6)cc5c43)ccc2c1` (stereo not shown) [BiN-1-GE], for which the Evaluation of transparency entry is “A (The absorption coefficient is less than 0.03.)”.
`c1ccc2cc(C3c4c(ccc5ccc(OCC6CO6)cc45)Oc4ccc5ccc(OCC6CO6)cc5c43)ccc2c1` (stereo not shown) [BiN-1-G]: the Evaluation of transparency entry was “A (The absorption coefficient is less than 0.03.)”.
For the molecule `Oc1ccc(CCOc2ccc3ccc4c(c3c2)C(c2ccc3ccccc3c2)c2c(ccc3ccc(OCCc5ccc(O)cc5)cc23)O4)cc1` [BiN-1-PE], the Evaluation of transparency entry is listed as “A (The absorption coefficient is less than 0.03.)”.
Still for that read-out and setting: to `Oc1ccc2ccc3c(c2c1)C(c1ccc2ccccc2c1)c1c(ccc2ccc(O)cc12)O3` [BiN-1] belongs “A (The absorption coefficient is less than 0.03.)”; to `C#CCOc1ccc2ccc3c(c2c1)C(c1ccc2ccccc2c1)c1c(ccc2ccc(OCC#C)cc12)O3` [BiN-1-Pr], “A (The absorption coefficient is less than 0.03.)”; to `C=Cc1ccc(COCCOc2ccc3ccc4c(c3c2)C(c2ccc3ccccc3c2)c2c(ccc3ccc(OCCOCc5ccc(C=C)cc5)cc23)O4)cc1` [BiN-1-SE], “A (The absorption coefficient is less than 0.03.)”.
`Oc1ccc2c3c(ccc2c1)Oc1ccc2cc(O)ccc2c1C3c1ccc2ccccc2c1` [BiN-3]: the Evaluation of transparency entry is “A (The absorption coefficient is less than 0.03.)”.
On to `CC1(c2ccc3ccccc3c2)c2c(ccc3ccc(O)cc23)Oc2ccc3ccc(O)cc3c21` [BiN-4], for which the Evaluation of transparency entry is on record as “A (The absorption coefficient is less than 0.03.)”.
With `CC(C)(C)OC(=O)COc1ccc2c3c(ccc2c1)Oc1ccc2cc(OCC(=O)OC(C)(C)C)ccc2c1C3c1ccc2ccccc2c1` [BiN-3-MeBOC], the Evaluation of transparency entry is “A (The absorption coefficient is less than 0.03.)”.
On the same count and under the same terms, to `C=CCOc1ccc2c3c(ccc2c1)Oc1ccc2cc(OCC=C)ccc2c1C3c1ccc2ccccc2c1` [BiN-3-AL] belongs “A (The absorption coefficient is less than 0.03.)”.

The nature of a further data set: Solubility test in organic solvent (amount of dissolution). The format is physicochemical. The settings on record: amount of dissolution in propylene glycol monomethyl ether, 23° C., ultrasonic waves 30 minutes, visual observation. The protocol: With respect to the solubility of each compound in an organic solvent, the solubility of the compound in propylene glycol monomethyl ether was measured. The solubility was evaluated according to the following criteria, using the amount of dissolution in propylene glycol monomethyl ether. For the measurement of the amount of dissolution, the evaluation was carried out by precisely weighing the compound in a test tube at 23° C., […], applying ultrasonic waves for 30 minutes with an ultrasonic cleaning machine, visually observing the subsequent state of the liquid, and determining the concentration of the completely dissolved amount as the basis.
With `c1ccc2cc(C3c4c(ccc5ccc(OCCOCC6CO6)cc45)Oc4ccc5ccc(OCCOCC6CO6)cc5c43)ccc2c1` (stereo not shown) [BiN-1-GE], the Solubility test entry is given as “A (5.0% by mass≤amount of dissolution)”.
On to `c1ccc2cc(C3c4c(ccc5ccc(OCC6CO6)cc45)Oc4ccc5ccc(OCC6CO6)cc5c43)ccc2c1` (stereo not shown) [BiN-1-G], for which the Solubility test entry is “A (5.0% by mass≤amount of dissolution)”.
Turning to `Oc1ccc(CCOc2ccc3ccc4c(c3c2)C(c2ccc3ccccc3c2)c2c(ccc3ccc(OCCc5ccc(O)cc5)cc23)O4)cc1` [BiN-1-PE], the Solubility test result is given as “A (5.0% by mass≤amount of dissolution)”.
In the case of `Oc1ccc2ccc3c(c2c1)C(c1ccc2ccccc2c1)c1c(ccc2ccc(O)cc12)O3` [BiN-1], the Solubility test result was “A (5.0% by mass≤amount of dissolution)”.
Still for that read-out and setting: to `C#CCOc1ccc2ccc3c(c2c1)C(c1ccc2ccccc2c1)c1c(ccc2ccc(OCC#C)cc12)O3` [BiN-1-Pr] belongs “A (5.0% by mass≤amount of dissolution)”; to `C=Cc1ccc(COCCOc2ccc3ccc4c(c3c2)C(c2ccc3ccccc3c2)c2c(ccc3ccc(OCCOCc5ccc(C=C)cc5)cc23)O4)cc1` [BiN-1-SE], “A (5.0% by mass≤amount of dissolution)”.
In the case of `Oc1ccc2c3c(ccc2c1)Oc1ccc2cc(O)ccc2c1C3c1ccc2ccccc2c1` [BiN-3], the Solubility test result is reported as “A (5.0% by mass≤amount of dissolution)”.
As for `CC1(c2ccc3ccccc3c2)c2c(ccc3ccc(O)cc23)Oc2ccc3ccc(O)cc3c21` [BiN-4], the Solubility test result is recorded as “A (5.0% by mass≤amount of dissolution)”.
Take `CC(C)(C)OC(=O)COc1ccc2c3c(ccc2c1)Oc1ccc2cc(OCC(=O)OC(C)(C)C)ccc2c1C3c1ccc2ccccc2c1` [BiN-3-MeBOC]: the Solubility test result is “A (5.0% by mass≤amount of dissolution)”.
For the molecule `C=CCOc1ccc2c3c(ccc2c1)Oc1ccc2cc(OCC=C)ccc2c1C3c1ccc2ccccc2c1` [BiN-3-AL], the Solubility test entry is reported as “A (5.0% by mass≤amount of dissolution)”.
